According to patent US12459951B2, “Compounds that interact with RAS superfamily proteins for treatment of cancers, inflammatory diseases, rasopathies, and fibrotic disease” (SHY Therapeutics, LLC, priority 2022, dated 2025):

Columns and labels:
[1] = test system: IL6; experiment: IL-6 Quantification Assay (ELISA), LPS-stimulated RAW 264.7; assay type: cell-based; set-up: inhibition: dose or concentration left out as unconfirmed; settings: Mus musculus, RAW264.7; read-out: IL-6: % inh.
[2] = test system: Akt phosphorylation; experiment: Akt Phosphorylation Assay (western blot), Panc-1; assay type: cell-based, human; settings: at 10 μM, * = activation
Procedure: Protocol for Western Akt Cell-Based Phosphorylation Assay
This assay is referred to as the “Akt Phosphorylation Assay” throughout this application.
Human tumor-derived pancreatic cancer cell line Panc-1 (expressing KRas G12D mutant) was purchased from American Type Culture Collection and grown in complete DMEM-High Glucose supplemented with penicillin (100 U/mL), streptomycin (100 μg/mL), and 10% heat-inactivated FBS at 37° C. in a humidified incubator with 5% CO2.
Method 1: Cells were plated at 350000 cells/well density in a 12-well plate, allowed 3 hours to adhere to the plate, then starved in the appropriate medium in the presence of 0.5% FBS overnight. The small molecules to be tested were added to the cells in the final concentration of 10 μM in the presence of 0.3% DMSO for 6 hours incubation at 37° C. Next, cells were stimulated with 1.5 ng/ml EGF for 15 minutes then cells were lysed with lysis buffer containing 1% Triton X-100, EDTA, and Halt™ Protease & Phosphatase Inhibitor Cocktail (Thermo Scientific). Protein concentration was assessed by BCA protein assay (Thermo Scientific). Phosphorylation level of Akt was determined by western blot.
Method 2: Cells were plated at 350000 cells/well density in a 12-well plate in 10% FBS. The next day small molecules to be tested were added to the cells in the final concentration of 10 μM in the presence of 0.3% DMSO for 6 hours incubation at 37° C. For IC50 value determination, serial dilutions of compounds were added to cells under the same conditions. Next, cells were lysed with lysis buffer containing 1% Triton X-100, EDTA, and Halt™ Protease & Phosphatase Inhibitor Cocktail (Thermo Scientific). Protein concentration was assessed by BCA protein assay (Thermo Scientific). Phosphorylation level of Akt was determined by western blot.
Western blot protocol: Equal amounts of protein (15-50 μg) were separated by SDS-PAGE and transferred to nitrocellulose membranes (Invitrogen by Thermo Fisher Scientific). The membrane was stained with Ponceau S Stain (Boston BioProducts) to verify uniform protein loading. Membranes were blocked with 10% milk and phosphorylation levels of Akt were assessed by incubating overnight at 4° C. with anti-phospho-Akt (Ser473) antibody (Cell Signaling) followed by HRP-conjugated secondary antibody (Jackson Immunoresearch, West Grove, PA). Bands were incubated in Amersham ECL Prime Western Blotting Detection Reagent (GE Healthcare) and visualized using the ChemiDoc MP imaging system (Bio-Rad).

[3] = test system: KRas wild type; experiment: Ras GTP Binding Domain Inhibition Assay (Ras Superfamily Assay); settings: 20 μM compound; for KRas wild type + SOS: % inh.: with SOS; for KRas wild type: % inh.: without SOS
Text: (§1) Biological Example 3: Ras GTP Binding Domain Inhibition Assay
(§2) The assays described in Example 3 are collectively referred to as the “Ras Superfamily Assay” throughout this application.
(§3) A Ras Superfamily Activity Assay (as disclosed in International Application No. PCT/US2018/038613, filed Jun. 20, 2018, which is incorporated by reference in its entirety) was used as a specific assay to evaluate compounds against the following for the following Ras Superfamily proteins: KRas wild type, KRas Q61H mutant, KRas G12C mutant, KRas G12D mutant, Rac-1, and Rho-A.
(§4) • 25 mM Tris-HCl, pH 7.4 • 27 mM KCl • 137 mM NaCl • 1 mM MgCl2 • 1 mM DTT Buffer-II: • 50 mM Tris-HCl, pH 7.0 • 1 mM MgCl2 • 1 mM DTT
(§5) The small GTPases proteins: KRas wild type. KRas Q61H mutant, KRas G12C mutant, KRas G12D mutants, Rac-1, and Rho-A were expressed as His-tagged proteins. In addition, the Guanosine nucleotide Exchange Factor (GEF) Sos protein (residues 556-1049) was expressed as a His-tagged protein. In cells, the guanine nucleotide exchange factor Sos protein promotes activation of Ras proteins by stimulating an exchange of GDP for GTP. The inclusion of Sos to the Ras GTP binding domain inhibition assay may be considered as an alternative representation of physiological cellular conditions for evaluating the inhibitory activity of some of the tested small molecules.
(§6) For the assay, all purified small GTPases proteins were diluted in Buffer-I or Buffer-II to a final concentration of 10-30 μg/mL. 200 μL of each diluted protein was added to a nickel-coated 96-well plate and incubated overnight at 4° C. Then the protein solution was discarded and 200 μL of Buffer-I or Buffer-II was added to each well in the presence of 1% DMSO. Compounds to be tested were added to the protein-coated wells at final concentration of 20 μM, and incubated for 3 hours at room temperature with and without 10-30 μg/mL of Sos added to the final hour of the incubation. When performing IC50 measurements a serial dilution of all tested concentrations was added. Then Cy3-GTP or Cy5-GTP was added to each well to a final concentration of 100 nM. The labeled GTP was incubated for 45 minutes at room temperature. Following GTP incubation, wells were washed 3× in Buffer-I or Buffer-II and 200 μL of Buffer-I or Buffer-II was added to each well. Following washes, the amount of bound labeled-GTP was measured using a SpectraMax M3 (Molecular Devices).

[4] = molecular target: T1, Rac-1 (Homo sapiens, UniProt P63000); experiment: as above; settings: read-out: Rac-1: % inh.
T1 construct: made in house
Text: as §1, §2, §3, §4, §5, §6

[5] = test system: KRas G12D mutant; experiment: as above; settings: 20 μM compound; for KRas G12D mutant + SOS: % inh.: with SOS; for KRas G12D mutant: % inh.: without SOS
Text: as §1, §2, §3, §4, §5, §6

SMILES	inhibition [1] [%]	% inh of Akt phosphorylation in Panc-1 [2]	KRas wild type + SOS: % inh. [3]	KRas wild type: % inh. [3]	inhibition at 20 µM [4] [%]	KRas G12D mutant + SOS: % inh. [5]	KRas G12D mutant: % inh. [5]
COc1cncnc1Nc1nc(-c2nccn2C)nn2cc(-c3ccn(C)n3)c(C)c12 [Compound 107, N-(5-Methoxypyrimidin-4-yl)-5-methyl-2-(1-methyl-1H-imidazol-2-yl)-6-(1-methyl-1H-pyrazol-3-yl)pyrrolo[2,1-f][1,2,4]triazin-4-amine]	25 to 49	C* (46-84% activation)	D (D = 76-100% inhibition)	C (C = 50-75% inhibition)	76 to 100	C (C = 50-75% inhibition)	C (C = 50-75% inhibition)
Cc1c(-c2ccn(C3CC3)n2)cn2nc(-c3nccn3C)nc(Nc3cc(OCCCN(C)C)ccn3)c12 [Compound 148, 6-(1-Cyclopropyl-1H-pyrazol-3-yl)-N-(4-(3-(dimethylamino)propoxy)pyridin-2-yl)-5-methyl-2-(1-methyl-1H-imidazol-2-yl)pyrrolo[2,1-f][1,2,4]triazin-4-amine]	1 to 24	A (1-25% inhibition)	–	–	0	–	–
Cc1c(-c2ccn(C)n2)cn2nc(-c3nccn3C)nc(Nc3ncccn3)c12.Cl [Compound 115, 5-Methyl-2-(1-methyl-1H-imidazol-2-yl)-6-(1-methyl-1H-pyrazol-3-yl)-N-(pyrimidin-2-yl)pyrrolo[2,1-f][1,2,4]triazin-4-amine hydrochloride salt]	50 to 74	D* (85-100% activation)	C (C = 50-75% inhibition)	D (D = 76-100% inhibition)	1 to 25	C (C = 50-75% inhibition)	C (C = 50-75% inhibition)
COc1ccnc(Nc2nc(-c3nccn3C)nn3cc(-c4ccn(C)n4)c(C)c23)n1.Cl [Compound 114, N-(4-Methoxypyrimidin-2-yl)-5-methyl-2-(1-methyl-1H-imidazol-2-yl)-6-(1-methyl-1H-pyrazol-3-yl)pyrrolo[2,1-f][1,2,4]triazin-4-amine hydrochloride salt]	75 to 100	D* (85-100% activation)	D (D = 76-100% inhibition)	D (D = 76-100% inhibition)	76 to 100	D (D = 76-100% inhibition)	D (D = 76-100% inhibition)
CO[C@H]1C[C@H](Nc2nc(-c3nccn3C)nn3cc(-c4cccnc4)c(-c4ccccn4)c23)C1 [Compound 168, N-((1r,3r)-3-Methoxycyclobutyl)-2-(1-methyl-1H-imidazol-2-yl)-5-(pyridin-2-yl)-6-(pyridin-3-yl)pyrrolo[2,1-f][1,2,4]triazin-4-amine]	1 to 24	0 (0% inhibition)	A (A = 1-25% inhibition)	A (A = 1-25% inhibition)	1 to 25	A (A = 1-25% inhibition)	B (B = 26-49% inhibition)
Cc1c(-c2ccn(C)n2)cn2nc(-c3nccn3C)nc(Nc3ccccn3)c12 [Compound 118, 5-Methyl-2-(1-methyl-1H-imidazol-2-yl)-6-(1-methyl-1H-pyrazol-3-yl)-N-(pyridin-2-yl)pyrrolo[2,1-f][1,2,4]triazin-4-amine]	25 to 49	D* (85-100% activation)	D (D = 76-100% inhibition)	D (D = 76-100% inhibition)	76 to 100	D (D = 76-100% inhibition)	D (D = 76-100% inhibition)
Cc1c(-c2ccn(C(C)C)n2)cn2nc(-c3nccn3C)nc(Nc3ncc[nH]3)c12 [Compound 125, N-(1H-Imidazol-2-yl)-6-(1-isopropyl-1H-pyrazol-3-yl)-5-methyl-2-(1-methyl-1H-imidazol-2-yl)pyrrolo[2,1-f][1,2,4]triazin-4-amine]	50 to 74	D* (85-100% activation)	B (B = 26-49% inhibition)	C (C = 50-75% inhibition)	50 to 75	C (C = 50-75% inhibition)	C (C = 50-75% inhibition)
Cc1c(-c2ccn(C)n2)cn2nc(-c3nccn3C)nc(Nc3cn(C(C)C)nn3)c12 [Compound 109, N-(1-Isopropyl-1H-1,2,3-triazol-4-yl)-5-methyl-2-(1-methyl-1H-imidazol-2-yl)-6-(1-methyl-1H-pyrazol-3-yl)pyrrolo[2,1-f][1,2,4]triazin-4-amine]	50 to 74	D* (85-100% activation)	C (C = 50-75% inhibition)	D (D = 76-100% inhibition)	76 to 100	C (C = 50-75% inhibition)	D (D = 76-100% inhibition)
Cc1c(-c2ccn(C3CC3)n2)cn2nc(-c3nccn3C)nc(Nc3cc(OCCN(C)C)ccn3)c12 [Compound 147, 6-(1-Cyclopropyl-1H-pyrazol-3-yl)-N-(4-(2-(dimethylamino)ethoxy)pyridin-2-yl)-5-methyl-2-(1-methyl-1H-imidazol-2-yl)pyrrolo[2,1-f][1,2,4]triazin-4-amine]	0	A* (1-25% activation)	–	–	0	–	–
